These are literature values, as cited in patent US20050085446A1, “Fluoroquinolone formulations and methods of making and using the same” (priority 2003, published 2005).

Where two headings read alike, the source gives them in different places.

For this data set, the system named is bacterial strains.

`O=C(O)c1cn(C2CC2)c2cc(N3CCNCC3)c(F)cc2c1=O` [ciprofloxacin, 1-cyclopropyl-6-fluoro-1,4-dihydro-4-oxo-7-(1-piperazinyl)-3-quinolinecarboxylic acid]: the MIC90 entry (generally around) was “around 0.5 μg/g”.
Regarding gentamicin, the MIC90 is recorded as 10 μg/gm.
